# Reference: US20200325177A1, “METHODS OF MAKING STREPTOGRAMIN COMPOSITIONS AND THE USE THEREOF” (THE REGENTS OF THE UNIVERSITY OF CALIFORNIA, priority 2017, published 2020)
# Read-outs that look alike come from different tables or passages of the source.
# Columns and labels:
# Format in all cases: cell-based
# P. aeruginosa ATCC 27853 = test: MIC, Gram-negative bacteria: P. aeruginosa ATCC 27853; details: Pseudomonas aeruginosa, ATCC27853, read-out: Minimal Inhibitory Concentration (MIC) P. aeruginosa ATCC 27853
# Gram-Negative Organisms = test: microbe, parasite or virus in culture
# S. pneumoniae = test: MIC, Gram-positive bacteria: S. pneumoniae; details: Streptococcus pneumoniae, column 10, read-out: Minimal Inhibitory Concentration (MIC) S. pneumoniae
# [1] = system: K. pneumoniae multidrug-resistant; test: MIC, Gram-negative bacteria: K. pneumoniae multidrug-resistant; details: Klebsiella pneumoniae, read-out: Minimal Inhibitory Concentration (MIC) K. pneumoniae multidrug-resistant
# [2] = system: S. aureus Vat A streptogramin; test: MIC, Gram-positive bacteria: S. aureus Vat A streptogramin; details: Staphylococcus aureus, read-out: Minimal Inhibitory Concentration (MIC) S. aureus Vat A streptogramin
# S. aureus = test: MIC, Gram-positive bacteria: S. aureus (strains not named); details: Staphylococcus aureus, read-out: Minimal Inhibitory Concentration (MIC) S. aureus
# H. influenzae ATCC 49247 = test: MIC, Gram-negative bacteria: H. influenzae ATCC 49247; details: Haemophilus influenzae, ATCC49247, read-out: Minimal Inhibitory Concentration (MIC) H. influenzae ATCC 49247
# [3] = system: S. aureus Linezolid-resistant; cfr; test: MIC, Gram-positive bacteria: S. aureus Linezolid-resistant; cfr; details: Staphylococcus aureus, column 9, read-out: Minimal Inhibitory Concentration (MIC) S. aureus Linezolid-resistant
# [4] = system: P. aeruginosa MDR clinical isolate; test: MIC, Gram-negative bacteria: P. aeruginosa MDR clinical isolate; details: Pseudomonas aeruginosa, read-out: Minimal Inhibitory Concentration (MIC) P. aeruginosa MDR clinical isolate
# E. faecium VRE; vanA = test: MIC, Gram-positive bacteria: E. faecium VRE; vanA; details: Enterococcus faecium, column 3, read-out: Minimal Inhibitory Concentration (MIC) E. faecium VRE
# E. faecalis = test: MIC, Gram-positive bacteria: E. faecalis; details: Enterococcus faecalis, column 1, read-out: Minimal Inhibitory Concentration (MIC) E. faecalis
# E. faecium ATCC 35667 = test: MIC, Gram-positive bacteria: E. faecium ATCC 35667; details: Enterococcus faecium, ATCC35667, column 2, read-out: Minimal Inhibitory Concentration (MIC) E. faecium ATCC 35667
# [5] = Acinetobacter baumannii, ATCC19606, read-out: Minimal Inhibitory Concentration (MIC), A. baumannii ATCC 19606
# [6] = Escherichia coli, ATCC25922, read-out: Minimal Inhibitory Concentration (MIC), E. coli ATCC 25922
# [7] = Escherichia coli, read-out: Minimal Inhibitory Concentration (MIC), E. coli BAS2006, OMP C, OMP F
# [8] = Escherichia coli, read-out: Minimal Inhibitory Concentration (MIC), E. coli olC efflux defective
# [9] = Escherichia coli, read-out: Minimal Inhibitory Concentration (MIC), E. coli permeability mutant BAS1314, IMP4213ZAB::TN10
# [10] = Escherichia coli, read-out: Minimal Inhibitory Concentration (MIC), E. coli ΔompC768, KanR insert
# [11] = Klebsiella pneumoniae, ATCC43816, read-out: Minimal Inhibitory Concentration (MIC), K. pneumoniae ATCC 43816
# [12] = first unnamed S. aureus column (c4)
# [13] = fourth unnamed S. aureus column (c8)
# [14] = second unnamed S. aureus column (c6)
# [15] = third unnamed S. aureus column (c7)
Structure (SMILES),MIC (P. aeruginosa ATCC 27853),MIC (Gram-Negative Organisms; [5]),MIC (Gram-Negative Organisms; [6]),MIC (Gram-Negative Organisms; [7]),MIC (Gram-Negative Organisms; [8]),MIC (Gram-Negative Organisms; [9]),MIC (Gram-Negative Organisms; [10]),MIC (Gram-Negative Organisms; [11]),MIC (S. pneumoniae),MIC [1],MIC (S. aureus; [12]),MIC (S. aureus; [13]),MIC (S. aureus; [14]),MIC (S. aureus; [15]),MIC (H. influenzae ATCC 49247),MIC [3],MIC [4],MIC (E. faecium VRE; vanA),MIC (E. faecalis),MIC (E. faecium ATCC 35667),other results
CC1=C\[C@@H](O)CC(=O)Cc2nc(c([Si](C)(C)C)o2)C(=O)N2CCC[C@@H]2C(=O)O[C@H](C(C)C)[C@H](C)/C=C/C(=O)NC\C=C\1 [SA0110261],> 64 µg/mL,> 64 µg/mL,> 64 µg/mL,> 64 µg/mL,64 µg/mL,16 µg/mL,> 64 µg/mL,> 64 µg/mL,64 µg/mL,> 64 µg/mL,> 64 µg/mL,64 µg/mL,64 µg/mL,> 64 µg/mL,> 64 µg/mL,> 64 µg/mL,> 64 µg/mL,> 64 µg/mL,> 64 µg/mL,64 µg/mL,MIC [2]: > 64 µg/mL
CC1=C\[C@@H](O)C[C@@H](O)Cc2nc(cs2)C(=O)N2CCC[C@@H]2C(=O)O[C@H](C(C)C)[C@H](C)/C=C/C(=O)NC\C=C\1 [SA0110264],> 64 µg/mL,> 64 µg/mL,> 64 µg/mL,4 µg/mL,2 µg/mL,1 µg/mL,> 64 µg/mL,> 64 µg/mL,2 µg/mL,> 64 µg/mL,8 µg/mL,8 µg/mL,16 µg/mL,16 µg/mL,1 µg/mL,> 64 µg/mL,> 64 µg/mL,4 µg/mL,> 64 µg/mL,1 µg/mL,"MIC ([2]; Gram-positive, column 5): > 64 µg/mL"
CC1=C\[C@@H](O)CC(N)Cc2nc(cs2)C(=O)N2CCC[C@@H]2C(=O)O[C@H](C(C)C)[C@H](C)/C=C/C(=O)NC\C=C\1 (some centres unmarked) [SA0110268],> 64 µg/mL,> 64 µg/mL,> 64 µg/mL,16 µg/mL,2 µg/mL,2 µg/mL,> 64 µg/mL,> 64 µg/mL,32 µg/mL,> 64 µg/mL,> 64 µg/mL,> 64 µg/mL,> 64 µg/mL,> 64 µg/mL,64 µg/mL,> 64 µg/mL,> 64 µg/mL,> 64 µg/mL,> 64 µg/mL,64 µg/mL,"MIC ([2]; Gram-positive, column 5): > 64 µg/mL"
CC1=C\[C@@H](O)CC(=O)Cc2nc(co2)C(=O)N2CCC[C@@H]2C(=O)O[C@H]([C@H](C)CF)[C@H](C)/C=C/C(=O)NC\C=C\1 [SA0110273],> 64 µg/mL,> 64 µg/mL,> 64 µg/mL,16 µg/mL,4 µg/mL,8 µg/mL,> 64 µg/mL,> 64 µg/mL,16 µg/mL,> 64 µg/mL,64 µg/mL,32 µg/mL,64 µg/mL,64 µg/mL,8 µg/mL,> 64 µg/mL,> 64 µg/mL,64 µg/mL,> 64 µg/mL,16 µg/mL,"MIC ([2]; Gram-positive, column 5): > 64 µg/mL"
CC1=C\[C@@H](O)C[C@@H](F)Cc2nc(cs2)C(=O)N2CCC[C@@H]2C(=O)O[C@H](C(C)C)[C@H](C)/C=C/C(=O)NC\C=C\1 [SA0110279],> 64 µg/mL,> 64 µg/mL,32 µg/mL,0.25 µg/mL,1 µg/mL,< 0.06 µg/mL,32 µg/mL,> 64 µg/mL,1 µg/mL,> 64 µg/mL,0.5 µg/mL,0.5 µg/mL,0.5 µg/mL,1 µg/mL,0.25 µg/mL,> 64 µg/mL,> 64 µg/mL,1 µg/mL,> 64 µg/mL,0.5 µg/mL,"MIC ([2]; Gram-positive, column 5): 8 µg/mL"
CC1=C\[C@@H](O)CC(=O)Cc2nc(co2)C(=O)N[C@H](Cc2ccccc2)C(=O)O[C@H](C(C)C)[C@H](C)/C=C/C(=O)NC\C=C\1 [SA0202061],> 64 µg/mL,> 64 µg/mL,> 64 µg/mL,16 µg/mL,4 µg/mL,4 µg/mL,,> 64 µg/mL,16 µg/mL,> 64 µg/mL,64 µg/mL,64 µg/mL,64 µg/mL,64 µg/mL,> 64 µg/mL,> 64 µg/mL,> 64 µg/mL,64 µg/mL,32 µg/mL,32 µg/mL,"MIC ([2]; Gram-positive, column 5): 64 µg/mL"
